According to the NIST ThermoML archive (doi:10.1016/j.tca.2016.01.006):
± gives the expanded uncertainty stated by the source.

Legend:
[1] = DTA
[2] = Molar enthalpy of transition or fusion; conditions: DSC

- Normal melting temperature ([1]; Crystal 1): 190.00 ± 2 °C
- Normal melting temperature ([1]; Metastable crystal): 185.00 ± 2 °C
- Molar enthalpy of transition or fusion ([2]; Crystal 1): 5.45 ± 0.17 kcal/mol
- Molar enthalpy of transition or fusion ([2]; Metastable crystal): 7.24 ± 0.17 kcal/mol
SMILES: CC1=C(CC(=O)O)c2cc(F)ccc2/C1=C\c1ccc([S+](C)[O-])cc1 (centres undefined)
